The assay deals with T1, hMCH-1R (Homo sapiens, UniProt Q99705).
T1 construct: expressed in transfected cells; host or cells: CHO/Galpha16 cells (stably transfected), membranes
As to the kind of experiment: MCH-1 receptor binding test (125I-MCH binding to membranes of hMCH-1R transfected CHO/Galpha16 cells). The settings on record: membranes of CHO/Galpha16 cells stably transfected with human hMCH-1R, 100 pM 125I-MCH. How it is done:
After the incubation the reaction is filtered using a cell harvester through 0.5% PEI treated fibreglass filters (GF/B, Unifilter Packard). The membrane-bound radioactivity retained on the filter is then determined after the addition of scintillator substance (Packard Microscint 20) in a measuring device (TopCount of Packard). […] The analysis of the concentration binding curve is carried out on the assumption of one receptor binding site.

The structures appear in SMILES notation. Where a name gives a salt, the structure may show the parent alone.

T1 sequence (Q99705 whole entry): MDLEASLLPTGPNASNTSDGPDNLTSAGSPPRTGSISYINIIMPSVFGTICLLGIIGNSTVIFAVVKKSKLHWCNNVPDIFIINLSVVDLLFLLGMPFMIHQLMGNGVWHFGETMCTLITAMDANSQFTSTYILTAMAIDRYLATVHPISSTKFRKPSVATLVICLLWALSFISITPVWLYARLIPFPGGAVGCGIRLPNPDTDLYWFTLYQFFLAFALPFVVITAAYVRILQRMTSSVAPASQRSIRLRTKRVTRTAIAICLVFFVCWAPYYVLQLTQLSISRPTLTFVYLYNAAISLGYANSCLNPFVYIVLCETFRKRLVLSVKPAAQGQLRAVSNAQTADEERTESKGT

As for `OC1CCN(CCc2ccc(CCc3ccc(OCc4ccccc4)nn3)nc2)CC1` [Example 31.10], the IC50 – broadly, the concentration needed to halve the response being measured – turned out to be 4 nM.
As for `Fc1ccccc1COc1ccc(CCc2ccc(CN3CCCC3)cc2)nn1` [Example 12.2, 3-(2-Fluoro-benzyloxy)-6-[2-(4-pyrrolidin-1-ylmethyl-phenyl)-ethyl]-pyridazine trifluoroacetate], the IC50 worked out at 13 nM.
Molecule `OC1CCN(Cc2ccc(CCc3ccc(OCC4CCCCO4)nn3)cc2)CC1` (centres unmarked) [Example 22.2, 1-(4-{2-[6-(Tetrahydro-pyran-2-ylmethoxy)-pyridazin-3-yl]-ethyl}-benzyl)-piperidin-4-ol] yielded an IC50 of 136 nM.
For `CC(=O)N1CCN(CCOc2ccc(CCc3ccc(OCc4ccccc4)nn3)nc2)CC1` [Example 29.10], the IC50 came out at 19 nM.
Molecule `c1ccc(COc2ccc(CCc3ccc(CN4CCCC4)cn3)nn2)cc1` [Example 4.1] displayed an IC50 of 16 nM.
Turning to `COC1CCN(Cc2ccc(C(=O)Cc3ccc(OCc4ccc(F)cc4)nn3)cc2)CC1` [Example 15.1, 2-[6-(4-Fluoro-benzyloxy)-pyridazin-3-yl]-1-[4-(4-methoxy-piperidin-1-ylmethyl)-phenyl]-ethanone], the 50% inhibitory concentration (IC50) was 9 nM. Compared with the last molecule, the IC50 is about 1.8-fold lower.
Regarding `c1ccc(COc2ccc(CCc3ccc(CNCc4cccnc4)cn3)nn2)cc1` [Example 4.2], the IC50 was found to be 20 nM.
The figure for `CN(Cc1ccccc1)c1ccc(CCc2ccc(CN3CCCC3)cc2)nn1` [Example 16.2, Benzyl-methyl-{6-[2-(4-pyrrolidin-1-ylmethyl-phenyl)-ethyl]-pyridazin-3-yl}-amine] is 590 nM; for `c1ccc(COc2ccc(CCc3ccc(CN4CCOCC4)cc3)nn2)cc1` [Example 1.1, 4-{4-[2-(6-Benzyloxy-pyridazin-3-yl)-ethyl]benzyl}-morpholine] it is 4 nM; for `COCCN(C)Cc1ccc(CCc2ccc(OCc3ccc(F)cc3)nn2)cc1` [Example 10.5] it is 4 nM.
Turning to `CC1CCCCN1Cc1ccc(CCc2ccc(OCc3ccccc3)nn2)nc1` (centres unmarked) [Example 4.4], the IC50 is 8 nM.

For the origin of these results see patent US20100197908A1 (Boehringer Ingelheim International GmbH, priority 2006, published 2010).
